Reference: ChEMBL document CHEMBL3228041, “Propiolaldehyde, a pargyline metabolite that irreversibly inhibits aldehyde dehydrogenase. Isolation from a hepatic microsomal system” (J Med Chem, 1979)
Active and inactive are the calls of the source. The rule behind the calls is not given here.

Key:
Rattus norvegicus [1] = organism: Rattus norvegicus; test: Induction of ethanol-derived blood acetaldehyde level in 0.1% phenobarbital for 8 days pretreated Sprague-Dawley rat measured after 2 hrs of acute ethanol dose; type: functional, organism-based
Rattus norvegicus [2] = organism: Rattus norvegicus; test: Inhibition of Sprague-Dawley rat liver mitochondrial aldehyde dehydrogenase at 1 mM at 38 degC in presence of 0.25 M sucrose relative to control; details: TDE = time-dependent effect
Rattus norvegicus [3] = organism: Rattus norvegicus; test: Inhibition of Sprague-Dawley rat liver mitochondrial aldehyde dehydrogenase at 1 mM measured immediately after compound addition at 38 degC in presence of 0.25 M sucrose relative to control
Rattus norvegicus [4] = organism: Rattus norvegicus; test: Irreversible inhibition of Sprague-Dawley rat liver mitochondrial aldehyde dehydrogenase at 1 mM incubated for 10 mins at 38 degC in presence of 0.25 M sucrose followed by compound washout measured relative to control
Rattus norvegicus [5] = organism: Rattus norvegicus; test: Inhibition of Sprague-Dawley rat liver mitochondrial aldehyde dehydrogenase at 1 mM after 5 mins at 0 degC in presence of 0.25 M sucrose relative to control
Liver microsome = test: Drug level in Sprague-Dawley rat liver microsomes treated with phenobarbital by GC-MS analysis in presence of NADPH; type: ADME
Rattus norvegicus [6] = organism: Rattus norvegicus; test: Inhibition of Sprague-Dawley rat liver mitochondrial aldehyde dehydrogenase assessed as complete inhibition at 1 mM measured after 5 to 10 mins at 38 degC in presence of 0.25 M sucrose
Rattus norvegicus [7] = organism: Rattus norvegicus; test: Inhibition of Sprague-Dawley rat liver mitochondrial aldehyde dehydrogenase at 1 mM after 5 mins at 25 degC in presence of 0.25 M sucrose relative to control

C#CCN(C)Cc1ccccc1
Activity (Rattus norvegicus [1]): Active

C#CC=O [PROPYNAL]
inhibition (Rattus norvegicus [2]): tde | inhibition (Rattus norvegicus [3]): 43% | inhibition (Rattus norvegicus [4]): Active | inhibition (Rattus norvegicus [5]): 32% | Drug metabolism (Liver microsome): metabolite_detected | inhibition (Rattus norvegicus [6]): Active | inhibition (Rattus norvegicus [7]): 45%
